Test results published in patent US9340477B2, “Process for production of hydroxystilbene derivative having physiological activity” (UHA MIKAKUTO CO., LTD., priority 2010, dated 2016).

How the values were obtained:
[1] = test system: HL-60 cells (human promyelocytic leokemia cells); assay: Cancer cell growth suppressing action using HL-60 cells (Cell counting kit-8); type: cell-based; settings: 24 hours, 6.3-100 μM, viable cells vs DMSO only, read-out: Cell growth suppressing ability to HL-60 (IC50)
Description: Next, in order to see the effect of the hydroxystilbene derivative to cancer cells, cancer cell growth suppressing action using HL-60 cells (human promyelocytic leokemia cells) was tested.
For culturing the HL-60 cells, an enriched culture medium “RPMI-1640” (manufactured by Sigma-Aldrich Japan) containing 4 mM glutamine (L-Glutamine, manufactured by Sigma-Aldrich Japan) and 10% FBS (Foetal Bovine Serum, manufactured by Biological Industries) was used. For the test, a 96-well plate for cell culture (manufactured by Corning Japan) was used, and the HL-60 cells whose number of cells was adjusted to be 5×10^5 cells/mL were seeded at 100 μL per well
As samples, p-coumaric acid, ferulic acid, caffeic acid, sinapic acid, resveratrol, pterostilbene, and the UHA1027, the UHA1028, the UHA1123, the UHA1124, the UHA1125, the UHA7032, the UHA7033, and the UHA9021 which were already purified were used. With respect to the preparation of the samples, each compound was dissolved in DMSO (Wako Pure Chemical Industries, Ltd.), and then adjusted in such a manner that the final concentration in the HL-60 cell culture solutions was 6.3 μM, 12.5 μM, 25 μM, 50 μM, and 100 μM. Then, the test was started.
The number of viable cells was quantified by an MTT method using a “Cell counting kit-8” (manufactured by DOJINDO LABORATORIES). 24 hours after starting the test, 10 μL of a Cell counting kit-8 solution was added to each well, and then sufficiently stirred. After a shading reaction for 1 hour, the absorbancy was measured at a measurement wavelength of 450 nm using a plate leader (Biorad Laboratories, Inc., “BIO-RAD Model 680”). Then, the cell viability was calculated based on the obtained data. The cell viability is a value obtained by setting the number of viable cells of the culture liquid to which only DMSO as a solvent was added to 100%, and then calculating the number of viable cells under the concentration of each compound as a relative value. From the relationship between the concentration of each compound and the cell viability, the concentration IC50 (50% inhibition concentration) at which the cell growth is suppressed by 50% was calculated.

[2] = Physicochemical properties: solubility in solvents
[3] = target: rat intestine derived lipase; assay: Lipase inhibitory action test (Lipase kit S); type: biochemical; settings: rat intestine acetone powder lipase, 30° C., 10 minutes reaction
Description: In order to see the inhibitory action to lipase of the hydroxystilbene derivative, an inhibitory action test using rat intestine derived lipase was performed.
As lipase, one obtained by suspending 100 mg of rat derived intestine acetone powder (manufactured by Sigma-Aldrich Japan) in 1 mL of 100 mM citric acid buffer (pH 6.0), stirred at 4° C. for 1 hour, centrifuging the same (at 15000 rpm for 45 minutes at 4° C.), and then diluting the supernatant by 1500 times was used as a lipase solution.
As samples, p-coumaric acid, caffeic acid, sinapic acid, resveratrol, and the UHA1027, the UHA1028, and the UHA9021 which were already purified were used. With respect to the preparation of the samples, each compound was dissolved in DMSO, and then prepared in such a manner as to achieve 0.1 mM, 0.5 mM, 1 mM, 2 mM, and 4 mM.
For measuring the activity, a “Lipase kit S” (Trade name, manufactured by Dainippon Pharmaceutical Co., Ltd.) was used. First, in accordance with a preparation method described in the catalog of the Lipase kit S, a color developing liquid was prepared. Reaction liquids in which 70 μl of the color developing liquid, 2 μl of an esterase inhibitor, 10 μl of the lipase solution, and 10 μl of the samples (Final concentration: 10 μM, 50 μM, 100 μM, 200 μM, 400 μM, and 1000 μM) were mixed were prepared, preincubated at 30° C. for 5 minutes, and then 8 μl of a substrate solution described in the catalog was added. Then, a reaction was started. After reacting for 10 minutes, 150 μl of a reaction stop liquid prepared in accordance with the preparation method described in the catalog of the Lipase kit S was added to stop the reaction. The resultant substance was subjected to a measurement of absorbancy at a wavelength of 415 nm. A reaction liquid to which only DMSO as the solvent of the sample was added was used as a positive control and one to which 10 μl of 100 mM citric acid buffer (pH 6.0) was added instead of the lipase solution was used as a negative control. From the relationship between the lipase inhibition rate calculated based on the data obtained therefrom and the concentration of each compound, the concentration IC50 at which the lipase activity is inhibited by 50% was calculated.

[4] = test system: SCC-4 cells (human oral cancer cells, ATCC); assay: Cancer cell growth suppressing action using SCC-4 oral cancer cells (Cell counting kit-8); type: cell-based; settings: 6.3-100 μM, Cell counting kit-8, DMSO negative control, read-out: Cell growth suppressing ability (IC50)
Description: Next, in order to see the effect of the hydroxystilbene derivative to oral cancer cells, cancer cell growth suppressing action using SCC-4 cells (human oral cancer cells, ATCC) was tested.
For culturing the SCC-4 cells, a DMEM/F-12 (1:1) culture medium (manufactured by GIBCO) containing 400 ng/mL hydrocortisone (manufactured by Sigma-Aldrich Japan), 1% antibiotic-antimycotic (manufactured by GIBCO), and 10% FBS (Foetal Bovine Serum, manufactured by ATCC) was used. For the test, a collagen I coat 96 well plate for cell culture (manufactured by Japan BD) was used, and SCC-4 cells whose number of cells was adjusted to be 5×10^5 cells/mL were seeded at 100 μL per well. The cells were cultured under the conditions of 37° C. and 5% CO2 for 24 hours, and were used for the test in a confluent state of 80% or higher.
As samples, p-coumaric acid, ferulic acid, caffeic acid, sinapic acid, resveratrol, pterostilbene, piceatannol, and the UHA1027, the UHA1028, the UHA1123, the UHA1124, the UHA1125, the UHA7032, the UHA7033, the UHA7034, and the UHA9021 which were already purified were used. With respect to the preparation of the samples, each compound was dissolved in DMSO, and then prepared in such a manner as to achieve 0.63 mM, 1.25 mM, 2.5 mM, 5 mM, and 10 mM. The samples were added in such a manner that the final concentration in the SCC-4 cell culture solution was 6.3 μM, 12.5 μM, 25 μM, 50 μM, and 100 μM. Then, the test was started. A sample to which an equivalent amount of only DMSO as the solvent was added was used as a negative control.
The number of viable cells was quantified by an MTT method using a “Cell counting kit-8” in the same manner as in Example 15, and the concentration IC50 at which the cell growth is suppressed by 50% was calculated.

CC(c1ccc(O)c(O)c1)c1c(O)cc(/C=C/c2ccc(O)cc2)cc1O (single isomer, unassigned) [UHA1027]
IC50 [1]: 5.9 µM | Solubility: DMSO ([2]; DMSO): Soluble | Solubility: Chloroform ([2]; chloroform): Soluble | Solubility: Ethanol ([2]; ethanol): Soluble | Solubility: Ethyl acetate ([2]; ethyl acetate): Soluble | Solubility: Methanol ([2]; methanol): Soluble | Solubility: Water ([2]; water): Poorly soluble | IC50 [3]: 452 µM | IC50 [4]: 28.9 µM
